In US4689345A, “Oxygenated alkyl substituted bicyclo alkanes” (CBD Corporation, priority 1986, dated 1987):
Read-outs that look alike come from different tables or passages of the source.

Tests used:
[1] = system: progesterone receptor; test: Fungal progesterone receptor inhibition, Fusarium; assay type: binding
[2] = system: androgen receptor; test: Androgen receptor inhibition, Fusarium calorum; assay type: binding
From the text: (§1) In the second series of experiments using the compound of the invention 2-(5-hydroxyhept-1-yl) bicyclo[3.3.0]octan-7-one {hexahydro-4-(5-hydroxyheptyl)-2-(1H)-pentalenone} upon zeralenone and zearalanol production, zearalenone and zearalanol were chemically obtained from Sigma Chemical Co., St. Louis, Mo.

[3] = system: androgen receptor; test: Androgen receptor inhibition, Fulsarium gravarium; assay type: binding
From the text: as §1

[4] = system: progesterone receptor; test: Progesterone receptor inhibition, Fulsarium gravarium; assay type: binding
From the text: as §1

[5] = system: androgen receptor; test: Androgen receptor inhibition, Candida; assay type: binding
[6] = system: progesterone receptor; test: Progesterone receptor inhibition, Candida; assay type: binding
[7] = system: androgen receptor; test: Androgen receptor inhibition, Torulopsis; assay type: binding
[8] = system: estrogen receptor; test: Estrogen receptor inhibition, Torulopsis; assay type: binding
[9] = system: androgen receptor; test: Androgen receptor inhibition, Coccodia; assay type: binding
[10] = system: estrogen receptor; test: Estrogen receptor inhibition, Coccodia; assay type: binding
[11] = system: estrogen receptor; test: Estrogen receptor inhibition, Blastomyces; assay type: binding
[12] = system: progesterone receptor; test: Progesterone receptor inhibition, Blastomyces; assay type: binding
[13] = system: androgen receptor; test: Androgen receptor inhibition, Cryptococci; assay type: binding
[14] = system: estrogen receptor; test: Estrogen receptor inhibition, Cryptococci; assay type: binding
[15] = system: progesterone receptor; test: Progesterone receptor inhibition, Cryptococci; assay type: binding
[16] = system: progesterone receptor; test: Progesterone receptor inhibition, Sporotrichum; assay type: binding
[17] = system: androgen receptor; test: Androgen receptor inhibition, Norcardia; assay type: binding
[18] = system: estrogen receptor; test: Estrogen receptor inhibition, Norcardia; assay type: binding
[19] = system: androgen receptor; assay type: binding; conditions: Histoplasma
[20] = system: estrogen receptor; test: Estrogen receptor inhibition, Pseudomonas testosteroni; assay type: binding
[21] = system: progesterone receptor; test: Progesterone receptor inhibition, Saccharomyces cerevisiae strains; conditions: DHT:anti-androgen 1:1,000
[22] = biological target: T1, androgen receptor sites (keloid cytosol) (Homo sapiens, UniProt P10275); test: Keloid cytosol steroid binding assay, androgen (DHT)
T1 construct: Surgical excision of keloids was performed from clinic and private patient populations; from tissue; host or cells: cytosol of surgically excised keloids
T1 sequence (P10275 1-920): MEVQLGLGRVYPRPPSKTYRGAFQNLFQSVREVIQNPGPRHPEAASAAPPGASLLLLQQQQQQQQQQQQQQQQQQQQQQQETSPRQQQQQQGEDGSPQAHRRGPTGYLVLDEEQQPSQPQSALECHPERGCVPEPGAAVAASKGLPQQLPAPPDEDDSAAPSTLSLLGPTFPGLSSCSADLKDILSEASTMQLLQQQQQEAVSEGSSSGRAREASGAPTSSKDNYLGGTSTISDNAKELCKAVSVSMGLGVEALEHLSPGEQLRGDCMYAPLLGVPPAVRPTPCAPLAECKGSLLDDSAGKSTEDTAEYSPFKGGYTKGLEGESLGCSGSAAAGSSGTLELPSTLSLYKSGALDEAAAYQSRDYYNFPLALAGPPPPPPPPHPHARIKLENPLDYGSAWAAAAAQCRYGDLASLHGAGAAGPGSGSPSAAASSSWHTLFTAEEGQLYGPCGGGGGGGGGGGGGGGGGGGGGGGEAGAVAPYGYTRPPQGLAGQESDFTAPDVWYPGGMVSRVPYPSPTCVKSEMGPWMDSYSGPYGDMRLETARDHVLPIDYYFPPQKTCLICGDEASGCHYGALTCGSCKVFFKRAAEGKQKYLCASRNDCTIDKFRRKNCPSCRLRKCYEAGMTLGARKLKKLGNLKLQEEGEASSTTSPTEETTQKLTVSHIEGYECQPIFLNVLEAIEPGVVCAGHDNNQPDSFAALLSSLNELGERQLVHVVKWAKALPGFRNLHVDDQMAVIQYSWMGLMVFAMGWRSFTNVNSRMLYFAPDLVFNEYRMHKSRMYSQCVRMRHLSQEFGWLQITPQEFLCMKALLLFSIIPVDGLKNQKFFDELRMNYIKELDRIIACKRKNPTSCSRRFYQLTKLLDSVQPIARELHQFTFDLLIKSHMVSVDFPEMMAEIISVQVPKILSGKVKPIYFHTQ

[23] = biological target: T2, progesterone receptor (keloid cytosol) (Homo sapiens, UniProt P06401); test: Keloid cytosol steroid binding assay, progesterone
T2 construct: [3H]promegestone (R5020) tracer

[24] = system: estrogen receptors; test: Effect on estrogen receptors in breast capsule tissue; assay type: binding, human; conditions: breast capsule / hard band tissue
Experimental: "Hard fibrous band" formation was retarded around breast implants following augmentation surgery.
The tissues were evaluated, with appropriate controls, for effects by the novel anti-androgen.

[25] = biological target: T3, androgen receptor (Homo sapiens, UniProt P10275); test: Androgen receptor blocking in breast capsule (hard band) tissue; assay type: binding; design: from tissue; host or cells: breast capsule (hard fibrous band) tissue; concentration or dose not given beside the values
T3 sequence (P10275 1-920): T1 sequence (P10275 1-920)
From the text: In addition to interabdominal adhesions following surgery, the other most common post-surgical fibrous complication is that of a hard fibrous band developing around breast implants following breast augmentation surgery. It has been postulated that these bands may be caused by keloid formation under the skin. Such tissues were studied to evaluate the effect of the anti-androgens of this invention on other keloid tissue.

T2 sequence (P06401 whole entry): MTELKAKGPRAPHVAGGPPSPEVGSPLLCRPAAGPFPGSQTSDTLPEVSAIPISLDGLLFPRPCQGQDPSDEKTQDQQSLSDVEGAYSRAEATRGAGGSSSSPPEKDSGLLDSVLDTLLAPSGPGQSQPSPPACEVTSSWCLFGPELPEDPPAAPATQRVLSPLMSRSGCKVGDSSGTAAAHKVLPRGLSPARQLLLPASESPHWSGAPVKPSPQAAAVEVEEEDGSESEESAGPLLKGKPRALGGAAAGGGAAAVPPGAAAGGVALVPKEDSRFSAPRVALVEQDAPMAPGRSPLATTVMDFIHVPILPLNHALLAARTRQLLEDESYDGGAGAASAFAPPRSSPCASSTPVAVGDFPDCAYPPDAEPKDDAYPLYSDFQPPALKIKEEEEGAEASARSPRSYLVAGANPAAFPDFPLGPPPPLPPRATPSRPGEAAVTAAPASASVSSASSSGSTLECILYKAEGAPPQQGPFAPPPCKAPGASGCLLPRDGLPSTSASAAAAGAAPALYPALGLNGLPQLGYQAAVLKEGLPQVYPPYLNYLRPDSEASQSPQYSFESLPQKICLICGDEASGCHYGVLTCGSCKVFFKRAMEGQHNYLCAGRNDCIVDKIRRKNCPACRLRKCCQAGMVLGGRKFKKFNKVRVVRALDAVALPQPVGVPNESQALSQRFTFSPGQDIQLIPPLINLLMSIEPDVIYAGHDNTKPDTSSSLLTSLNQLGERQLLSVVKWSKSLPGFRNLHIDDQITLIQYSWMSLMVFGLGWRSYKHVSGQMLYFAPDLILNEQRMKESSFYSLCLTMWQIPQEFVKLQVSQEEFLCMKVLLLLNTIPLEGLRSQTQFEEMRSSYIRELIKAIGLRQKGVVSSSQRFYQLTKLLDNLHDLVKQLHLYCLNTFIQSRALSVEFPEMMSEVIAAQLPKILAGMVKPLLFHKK

Question: How did the “% Progesterone Receptor Inhibition” value ([1]; fungal hormone Zeralanol) turn out when `CCC(O)CCCCC1CCC2CC(=O)CC12` (stereo not drawn) [Compound IV] was run?
Answer: 0%

Question: What about the “% Progesterone Receptor Inhibition” value ([1]; fungal hormone Zeralenone) of the same compound?
Answer: 0%

Question: What about the “% Androgen Receptor Inhibition” value ([2]; DHT:anti-androgen 1:1) of the same compound?
Answer: 29%

Question: And the “% Androgen Receptor Inhibition” value ([2]; DHT:anti-androgen 1:10)?
Answer: 37%

Question: What about the “% Androgen Receptor Inhibition” value ([2]; DHT:anti-androgen 1:100) of the same compound?
Answer: 79%

Question: What about the “% Androgen Receptor Inhibition” value ([2]; DHT:anti-androgen 1:1,000) of the same compound?
Answer: 90%

Question: And the “% Androgen Receptor Inhibition” value ([3]; DHT:anti-androgen 1:1)?
Answer: 26%

Question: And the “% Androgen Receptor Inhibition” value ([3]; DHT:anti-androgen 1:10)?
Answer: 49%

Question: What about the “% Androgen Receptor Inhibition” value ([3]; DHT:anti-androgen 1:100) of the same compound?
Answer: 67%

Question: And the “% Androgen Receptor Inhibition” value ([3]; DHT:anti-androgen 1:1,000)?
Answer: 87%

Question: What about the “% Progesterone Receptor Inhibition” value ([4]; DHT:anti-androgen 1:1) of the same compound?
Answer: 1%

Question: What about the “% Progesterone Receptor Inhibition” value ([4]; DHT:anti-androgen 1:10) of the same compound?
Answer: 3%

Question: And the “% Progesterone Receptor Inhibition” value ([4]; DHT:anti-androgen 1:100)?
Answer: 6%

Question: And the “% Progesterone Receptor Inhibition” value ([4]; DHT:anti-androgen 1:1,000)?
Answer: 4%

Question: And the “% Androgen Receptor Inhibition” value [5]?
Answer: 92%

Question: What about the “% Progesterone Receptor Inhibition” value [6] of the same compound?
Answer: 7%

Question: What about the “% Androgen Receptor Inhibition” value [7] of the same compound?
Answer: 77%

Question: What about the “% Estrogen Receptor Inhibition” value [8] of the same compound?
Answer: 0%

Question: What about the “% Androgen Receptor Inhibition” value [9] of the same compound?
Answer: 67%

Question: What about the “% Estrogen Receptor Inhibition” value [10] of the same compound?
Answer: 0%

Question: And the “% Estrogen Receptor Inhibition” value [11]?
Answer: 0%

Question: And the “% Progesterone Receptor Inhibition” value [12]?
Answer: 3%

Question: And the “% Androgen Receptor Inhibition” value [13]?
Answer: 76%

Question: What about the “% Estrogen Receptor Inhibition” value [14] of the same compound?
Answer: 0%

Question: What about the “% Progesterone Receptor Inhibition” value [15] of the same compound?
Answer: 4%

Question: What about the “% Progesterone Receptor Inhibition” value [16] of the same compound?
Answer: 7%

Question: And the “% Androgen Receptor Inhibition” value [17]?
Answer: 50%

Question: And the “% Estrogen Receptor Inhibition” value [18]?
Answer: 0%

Question: What about the “% Androgen Receptor Inhibition” value [19] of the same compound?
Answer: 47%

Question: What about the “% Estrogen Receptor Inhibition” value ([20]; strain 1) of the same compound?
Answer: 0%

Question: What about the “% Estrogen Receptor Inhibition” value ([20]; strain 2) of the same compound?
Answer: 0%

Question: And the “% Estrogen Receptor Inhibition” value ([20]; strain 3)?
Answer: 0%

Question: What about the “% Estrogen Receptor Inhibition” value ([20]; strain 4) of the same compound?
Answer: 0%

Question: And the “% Progesterone Receptor Inhibition” value ([21]; strain 1)?
Answer: 2%

Question: What about the “% Progesterone Receptor Inhibition” value ([21]; strain 2) of the same compound?
Answer: 1%

Question: What about the “% Progesterone Receptor Inhibition” value ([21]; strain 3) of the same compound?
Answer: 0%

Question: And the “% Progesterone Receptor Inhibition” value ([21]; strain 4)?
Answer: 0%

Question: What about the “% Progesterone Receptor Inhibition” value ([21]; strain 5) of the same compound?
Answer: 3%

Question: And the “% Progesterone Receptor Inhibition” value ([21]; strain 6)?
Answer: 8%

Question: And the “% Progesterone Receptor Inhibition” value ([21]; strain 7)?
Answer: 4%

Question: Which results are given for `CCC(CCCCC1CCC2CC(=O)CC12)OC` (stereo not drawn) [Compound V, 2-(5-Methoxyhept-1-yl)bicyclo[3.3.0]octan-7-one]?
Answer: % Block ([22]; patient 1, suprapubic): 43%; % Block ([22]; patient 2, chest): 24%; % Block ([22]; patient 3, neck): 57%; % Block ([22]; patient 4, inguinal groin): 86%; effect on binding of progesterone [23]: no effect; effect on estrogen receptors [24]: without any significant effects; effect on estrogen receptors ([24]; listed as 2-(5-methoxyhept-1-yl)bicyclo[3.3.0]octan-7-one): no significant effects; Mean % Androgen Inhibition ([25]; breast capsule group 1): 17%; Mean % Androgen Inhibition ([25]; breast capsule group 2): 49%; Mean % Androgen Inhibition ([25]; breast capsule group 3): 70%; Mean % Androgen Inhibition ([25]; breast capsule group 4): 74%
